In patent US4275164A, “Process and nutrient medium for growing microorganism” (priority 1979, dated 1981):

Tests used:
[1] = system: creatinine iminohydrolase; assay: Creatinine iminohydrolase activity, Small-scale Enzyme Production (Procedure 2; GDH assay); type: cell-based, ATCC 31546 (tentatively Flavobacterium filamentosum); settings: for creatinine iminohydrolase yield of microbial cells (in words) / growth of the culture and enzyme production (in words): carbon source; for growth of the culture and enzyme production (in words): Example 2; for Optimum Concentration (carbon source): concentration which produced the highest creatinine iminohydrolase activity, Table II; for optimum concentration: fumaric acid as carbon source and creatinine varied simultaneously, Example 3
Experimental: (§1) A fresh sample of culture grown for two days on Medium No. 1 slants as described in Procedure 1 above was obtained. From this slant, a loopful of culture was inoculated into 25 ml of a microbial growth medium of the type employed in the present invention contained in a 250 ml Erlenmeyer flask. The microbial growth medium employed consisted of Tryp-Soy Broth, referred to hereinabove. Following inoculation of the culture into the Erlenmeyer flask, the flask was shaken at 200 rpm at 30° C. for eight hours to produce good cellular growth without lysis of the microbial cells. Thereafter, a sample of the contents of the flask was microscopically inspected for culture purity and then aseptically centrifuged at 15,000 xg in a refrigerated centrifuge (available from DuPont Instruments, Newton, CT) for 15 minutes to separate the cells from the Tryp-Soy Broth. The supernatant containing the Tryp-Soy Broth was discarded, and the solid material containing the precipitated microbial cells was then re-suspendedin a volume of sterile distilled water equal to that present before centrifugation. 2 ml of this latter suspension was then used as an inoculum for a 250 ml Erlenmeyer flask containing 25 ml of a production medium to obtain further cell growth and to promote enzyme production by the microorganism. The specific composition of the production medium was varied as described in the following examples. However, in each case, once the microorganism was transferred as a 2-ml inoculum to the flask containing the particular production medium of interest, the flask was shaken at 30° C., 200 rpm for 10 hours. Thereafter, samples of the culture were withdrawn, diluted and dry-cell weight was determined. In addition, a 2.5 ml aliquot of the culture was centrifuged at 15,000 xg in a refrigerated centrifuge to separate the cells from the production medium. The supernatant containing the production medium was discarded. The precipitated cells were disrupted as in Procedure 4 below, and enzyme activity was assayed as described in Procedure 5 below.
(§2) 0.2 ml of an enzyme solution and 0.4 ml of cell suspension were added to 1.4 ml of 0.05 M tris(hydroxymethyl)aminomethane (tris) buffer, pH 8.5, and 10^-3 M (ethylenedinitrilo)tetraacetic acid, dipotassium salt (K2 EDTA). The aforementioned enzyme solution contained per ml of deionized water: 2.5 mg lysozyme, 1 mg bovine pancreatic deoxyribonuclease, and 1 mg bovine pancreatic ribonuclease. The amount of cell suspension was adjusted to give a final optical density of about 1.0, and the final volume was made to 2.0 ml with tris buffer. The suspension was shaken in a water bath at 37° C. for 20 minutes. The cell debris was removed by centrifugation at 27,000 xg in a refrigerated centrifuge, and the supernatant was assayed for enzyme activity as described in Procedure 5 below.
(§3) To determine the creatinine iminohydrolase activity described in the Examples, a L-glutamic dehydrogenase, "GDH", assay method was employed. In the GDH assay method, production of ammonia from creatinine, which represents the activity of a creatinine iminohydrolase enzyme preparation,is measured using NADPH (nicotinamide-adenine dinucleotride phosphate, reduced form) in a GDH-catalyzed reaction as follows:
Creatinine is hydrolyzed to ammonia via the unknown activity of a creatinine iminohydrolase sample, and the resultant ammonia reacts with the reagent α-ketoglutaric acid in the presence of GDH as catalyst to produce glutamic acid. The latter reaction catalyzed by GDH uses the NADPH oxidation reaction (NADPH→NADP), the disappearance of the NADPH absorption peak at 340 nm providing the spectroscopically detectable means for monitoring the assay. That is, the rate of NADPH disappearance measures the rate of glutamic acid production which, in turn, measures the rate of ammonia production.

[2] = system: creatinine iminohydrolase; assay: Creatinine iminohydrolase activity, Large-scale Enzyme Production (Procedure 3; GDH assay); type: cell-based, ATCC 31546 (tentatively Flavobacterium filamentosum); settings: Procedure No. 3; glucose 1.0 wt% added, or control 0.0 wt%
Experimental: as §2
as §3, with “follows: […]” for “follows:”

[3] = system: microorganism ATCC 31546; assay: Dry cell weight, Small-scale Enzyme Production (Procedure 2); type: cell-based, tentatively Flavobacterium filamentosum (ATCC 31546); settings: Procedure No. 2; glucose 1.0 wt% added, or control 0.0 wt%
Experimental: as §1, with “The specific composition of the production medium was varied as described in the following examples. However, in each case, once the microorganism was transferred as a 2-ml inoculum to the flask containing the particular production medium of interest, the flask was shaken at 30° C., 200 rpm for 10 hours.” left out, “In addition, a 2.5 ml aliquot of the culture was centrifuged at 15,000 xg in a refrigerated centrifuge to separate the cells from the production medium. The supernatant containing the production medium was discarded. The precipitated cells were disrupted as in Procedure 4 below, and enzyme activity was assayed as described in Procedure 5 below.” left out

[4] = system: microorganism ATCC 31546; assay: Dry cell weight / growth, Large-scale Enzyme Production (Procedure 3); type: cell-based, tentatively Flavobacterium filamentosum (ATCC 31546); settings: Procedure No. 3; glucose 1.0 wt% added, or control 0.0 wt%
Experimental: Large-scale enzyme production was carried out using a 150-liter fermentor as follows:
First, following the same steps described in Procedure 2 above, a fresh sample of the microorganism ATCC 31546 culture which had been grown for two days on Medium No. 1 slants was transferred into 25 ml of microbial growth medium contained in a 250-ml Erlenmeyer flask. The microbial growth medium was the same as that described in Procedure 2 above. The first stage of inoculum growth in the microbial growth medium was carried out by shaking the flask at 200 rpm, 25° C. for 12 hours. A sample of the contents of the flask was thereafter microscopically inspected for culture purity. Thereafter, in the second stage of inoculum growth in the microbial growth medium, the contents of two 250-ml Erlenmeyer flasks containing first-stage culture were transferred aseptically to a 14-liter fermentor containing 10 liters of sterilized microbial growth medium having the composition described in Procedure 2 above and also containing 0.01 wt% of a polyglycol anti-foam agent sold under the tradename Polyglycol P-2000 by Dow Chemicals, Midland, MI. […] At this point, a sufficient quantity of cells was available to form an inoculum for the 150-liter fermentor. […] Dissolved oxygen concentration and pH were monitored continuously throughout the 12-hour period. […]

[5] = carbon source at optimum concentration, control 1.0 wt% fumaric acid

Row | SMILES | creatinine iminohydrolase yield of microbial cells (in words) [1] | growth of the culture and enzyme production (in words) [1] | Optimum Concentration (carbon source) [1] | Creatinine Iminohydrolase Activity % of Control [1, 5] | also measured
1 | CC(=O)O [Acetic Acid] | yielding only small amounts of creatinine iminohydrolase | did not support the growth of the culture or produce a detectable amount of enzyme | 0.1 Wt. % | – | –
2 | C[C@H](N)C(=O)O [Alanine] | – | – | 1.0 Wt. % | 35 % of Control | –
3 | N[C@@H](CC(=O)O)C(=O)O [Aspartic Acid] | yielding only small amounts of creatinine iminohydrolase | the culture grew well but these sources repressed enzyme synthesis | 1.0 Wt. % | – | –
4 | O=C(O)CC(O)(CC(=O)O)C(=O)O [Citric Acid] | – | acceptable levels of microbial growth and enzyme production | 1.0 Wt. % | 71 % of Control | –
5 | CN1CC(=O)NC1=N [Creatinine] | – | – | – | – | optimum concentration [1]: 0.5%
6 | O=C(O)/C=C/C(=O)O [Fumaric Acid, Fumaric acid] | – | good enzyme production and good growth of the microorganism | 1.0 Wt. % | 100 % of Control | optimum concentration [1]: 1.0%
7 | OC[C@H]1OC(O)[C@H](O)[C@@H](O)[C@@H]1O (stereo partly drawn) [Glucose] | – | acceptable levels of microbial growth and enzyme production | 1.0 Wt. % | 51 % of Control | Creatinine Iminohydrolase Activity [2]: 720 U/liter; Creatinine Iminohydrolase Activity % of Control [2]: 134 % of Control; Creatinine Iminohydrolase Activity % of Control ([1]; Procedure No. 2, glucose 1.0 wt% added, or control 0.0 wt%): 135 % of Control; Dry Cell Weight [3]: 3.31 g/L; Dry Cell Weight [4]: 3.92 g/L
8 | N[C@@H](CCC(=O)O)C(=O)O [Glutamic Acid] | yielding only small amounts of creatinine iminohydrolase | the culture grew well but these sources repressed enzyme synthesis | 1.0 Wt. % | – | –
9 | OCC(O)CO [Glycerol] | yielding only small amounts of creatinine iminohydrolase | did not support the growth of the culture or produce a detectable amount of enzyme | 0.5 Wt. % | – | –
10 | NCC(=O)O [Glycine] | yielding only small amounts of creatinine iminohydrolase | did not support the growth of the culture or produce a detectable amount of enzyme | 0.5 Wt. % | – | –
11 | O=C(O)CCC(=O)C(=O)O [Ketoglutaric Acid, α-Ketoglutaric acid] | – | good growth of the microorganism and produced more than twice as much enzyme as did the fumaric acid control | 1.0 Wt. % | 205 % of Control | –
12 | CC(O)C(=O)O (stereo not drawn) [Lactic Acid] | – | acceptable levels of microbial growth and enzyme production | 0.5 Wt. % | 8 % of Control | –
13 | O=C(O)CC(O)C(=O)O (stereo not drawn) [Malic Acid] | – | acceptable levels of microbial growth and enzyme production | 1.0 Wt. % | 100 % of Control | –
14 | CC(=O)C(=O)O [Pyruvic Acid] | – | supported good enzyme production although somewhat lower growth of the microorganism was obtained | 0.5 Wt. % | 105 % of Control | –
15 | O=C(O)CCC(=O)O [Succinic Acid] | – | acceptable levels of microbial growth and enzyme production | 1.0 Wt. % | 49 % of Control | –
16 | OC[C@H]1O[C@@](CO)(O[C@H]2O[C@H](CO)[C@@H](O)[C@H](O)[C@H]2O)[C@@H](O)[C@@H]1O [Sucrose] | yielding only small amounts of creatinine iminohydrolase | did not support the growth of the culture or produce a detectable amount of enzyme | 0.5 Wt. % | – | –
